Measurements as given in the OligoGym collection.
Values joined by “and” are separate entries in the source; they are usually repeats but may differ in a detail not shown here. Equal entries are not always repeated. After the bases stand the sugars from the 5' end (letter, count) and the backbone: PS all phosphorothioate, else s phosphorothioate and o phosphodiester by linkage. Methylation of C is not given here. e = 2'-O-(2-methoxyethyl) (MOE); d = 2'-deoxy (DNA)

Biological target: DGAT2
Conditions: ASO

Sequence | target mRNA inhibition (HepG2, 0.12 µM) | target mRNA inhibition (HepG2, 2.5 µM) | target mRNA inhibition (HepG2, 10 µM) | target mRNA inhibition (HepG2, 20 µM)
TCTTTGAAAGCAAATAGTCT (sugars e5 d10 e5, PS) | 40% |  |  | 
GTCACCTCTTCCAGGAAGAC (sugars e5 d10 e5, PS) |  | 83% and 73% and 76% | 92% and 88% | 
CCTGCAGAAAAAGCAACCAA (sugars e5 d10 e5, PS) |  | 30% | 75% | 
CTGACATGGTAAGTCCTGAT (sugars e5 d10 e5, PS) |  | 76% and 52% | 93% and 89% | 
GAAACAGGCAGTAGGAAATC (sugars e5 d10 e5, PS) | 23% |  |  | 
GTTTCGGACCCACTGTGACC (sugars e5 d10 e5, PS) | 65% |  |  | 
CCTACAGCAGAGGGAAGATG (sugars e5 d10 e5, PS) | 13% |  |  | 
AGACCACATGAAGTATCTAA (sugars e5 d10 e5, PS) | 50% |  |  | 
GATATAGTTCCTGGTGGTCA (sugars e5 d10 e5, PS) | 57% |  |  | 
CATTGCCACCCCCATCCTCA (sugars e5 d10 e5, PS) | 9% |  |  | 
GTTGTGTGTCTTCACCAGCT (sugars e5 d10 e5, PS) | 54% and 68% |  |  | 
AACTCTGCCATTTAATGAGC (sugars e5 d10 e5, PS) |  | 17% | 53% | 
CCCCTCGCGCGACAGCGCAG (sugars e5 d10 e5, PS) | 25% |  |  | 
GGTGACTGCATTCTTGCCAG (sugars e5 d10 e5, PS) | 25% |  |  | 
GCCAGAGTTATCCTCAATTC (sugars e5 d10 e5, PS) |  | 89% | 78% | 
CTTTGAGCATCCCCAATCCC (sugars e5 d10 e5, PS) |  | 14% | 75% | 
AGCGCAGAGCCCATCAGCCT (sugars e5 d10 e5, PS) | 48% |  |  | 
TGGAACTTCTTCTGGACCCA (sugars e5 d10 e5, PS) | 43% |  |  | 
CGATTCACTGAGGACCTCAG (sugars e5 d10 e5, PS) |  | 79% | 61% | 
AGGACCCACTGGAGCAC (sugars e3 d10 e4, PS) |  | 42% | 93% | 
GGTAAGTCCTGATGATCCCC (sugars e5 d10 e5, PS) |  | 86% and 74% | 94% and 95% | 
TACTGACTTTTTCCTTCTTA (sugars e5 d10 e5, PS) | 39% |  |  | 
ACAGGACCCACTGGAGCACT (sugars e5 d10 e5, PS) | 79% |  |  | 

Sequence | target mRNA inhibition (HepG2, 0.12 µM) | target mRNA inhibition (HepG2, 2.5 µM) | target mRNA inhibition (HepG2, 10 µM) | target mRNA inhibition (HepG2, 20 µM)
GCAGGTTGTGTGTCTTCACC (sugars e5 d10 e5, PS) | 65% and 73% |  |  | 
GGTCAGCAGGTTGTGTGTCT (sugars e3 d14 e3, PS) | 57% |  |  | 
AGAGGGTTCCATGGCACAAA (sugars e5 d10 e5, PS) | 67% |  |  | 
GGACAGAGGTTCAACATCCA (sugars e5 d10 e5, PS) |  | 58% | 89% | 
TGGTGGTTGCAATGTTGCCA (sugars e5 d10 e5, PS) |  | 88% and 80% | 92% and 91% | 
GCTCATGAGAAGCTTAGAAG (sugars e5 d10 e5, PS) |  | 66% | 86% | 
GTGCTCTGTGGGCTCCTCCA (sugars e5 d10 e5, PS) |  | 69% | 83% | 
CACTAAATTAGGAAGCTGGG (sugars e5 d10 e5, PS) |  | 81% and 82% | 83% and 85% | 
GCATGAACAAGGGCAAGTCC (sugars e5 d10 e5, PS) |  | 79% | 89% | 
CCAAAGATATAGTTCCTGGT (sugars e5 d10 e5, PS) | 66% |  |  | 
AGGTTGTGTGTCTTCACCAG (sugars e5 d10 e5, PS) | 59% and 74% |  |  | 
TGATTCTTACCTGCAATGAG (sugars e5 d10 e5, PS) | 22% |  |  | 
AATTTCCTTACAGGGTATTG (sugars e5 d10 e5, PS) | 46% |  |  | 
ACCTCGATGTTACATTAAGG (sugars e5 d10 e5, PS) |  | 68% | 90% | 
CTTACTGTTCAGCAGTCTGC (sugars e5 d10 e5, PS) |  | 57% | 90% | 
CCGCGCAGGACCCCGGAGTA (sugars e5 d10 e5, PS) | 75% |  |  | 
CGCAGGACCCCGGAGTAGGC (sugars e3 d14 e3, PS) | 65% |  |  | 
TCACCAGATTGTTGTGGGAA (sugars e5 d10 e5, PS) |  | 69% | 78% | 
GGCCTTGGCTGCAAGCTCTG (sugars e5 d10 e5, PS) |  | 52% | 67% | 
CTTCACCAGGGCCTCCATGT (sugars e5 d10 e5, PS) | 46% | 10% | 66% | 87%
TCCAGACTGGATTTACTGAA (sugars e5 d10 e5, PS) | 60% |  |  | 
TCCCAGACCCCTCGCGCGAC (sugars e5 d10 e5, PS) | 36% |  |  | 
AGGCATGGAGCTCAGAGACT (sugars e2 d13 e5, PS) | 78% |  |  | 

Sequence | target mRNA inhibition (HepG2, 0.12 µM) | target mRNA inhibition (HepG2, 2.5 µM) | target mRNA inhibition (HepG2, 10 µM) | target mRNA inhibition (HepG2, 20 µM)
TTGCCACTCCCATTCTTTGA (sugars e3 d14 e3, PS) | 59% |  |  | 
CCGCGCAGGACCCCGGAGTA (sugars e3 d14 e3, PS) | 71% |  |  | 
AGCCTCGGTGTCCTCTC (sugars e3 d10 e4, PS) |  | 8% | 90% | 
GCATTGCCACTCCCATTCTT (sugars e2 d13 e5, PS) | 61% |  |  | 
GTGAAGTTCTATCCCTTGGC (sugars e5 d10 e5, PS) |  | 58% and 71% | 91% and 93% | 
GGATGCTGGATCCAGTGCCC (sugars e5 d10 e5, PS) | 32% |  |  | 
ACAGCCCAGTTTCGGACCCA (sugars e5 d10 e5, PS) | 27% |  |  | 
GGGCGAAACCAATGTATTTC (sugars e5 d10 e5, PS) | 24% |  |  | 
TTCCTTTGAAATCCAATGCA (sugars e5 d10 e5, PS) |  | 63% | 86% | 
CTTGCCAGGCATGGAGCTCA (sugars e5 d10 e5, PS) | 51% |  |  | 
AGTCCAAACACTCAGGTAGG (sugars e5 d10 e5, PS) |  | 66% | 79% | 
ATAGGCCTGGATGCCCAAGT (sugars e5 d10 e5, PS) |  | 49% | 88% | 
GTACTCCCTCAACACAGGCA (sugars e5 d10 e5, PS) | 72% |  |  | 
CAGTTTCGGACCCACTGTGA (sugars e3 d14 e3, PS) | 58% |  |  | 
AGGATGAACTAAATCCACCA (sugars e5 d10 e5, PS) |  | 62% | 90% | 
CCCAGGAGCCCTCCTCGAAG (sugars e5 d10 e5, PS) | 54% |  |  | 
TTAGGCATGCTTCCTCCCAC (sugars e5 d10 e5, PS) |  | 78% | 68% | 
AGGCATGCTTCCTCCCA (sugars e3 d10 e4, PS) |  | 73% | 49% | 
TTCTTCTGGACCCATCGGCC (sugars e5 d10 e5, PS) | 44% |  |  | 
TCAGAAGGCCAGGCCCCTTC (sugars e5 d10 e5, PS) | 20% |  |  | 
GCTCAGTTCTTCCAACCAGT (sugars e5 d10 e5, PS) |  | 87% and 86% | 94% and 93% | 
GTTAGGATGCTTAACTTCTG (sugars e5 d10 e5, PS) |  | 51% | 86% | 
ACTTCTTCTGGACCCATCGG (sugars e5 d10 e5, PS) | 28% |  |  | 

Sequence | target mRNA inhibition (HepG2, 0.12 µM) | target mRNA inhibition (HepG2, 2.5 µM) | target mRNA inhibition (HepG2, 10 µM) | target mRNA inhibition (HepG2, 20 µM)
AGCATTGCCACTCCCATTCT (sugars e2 d13 e5, PS) | 50% |  |  | 
AGGCTGAGTTCTGCTCCTGG (sugars e5 d10 e5, PS) |  | 72% | 78% | 
GCAGCCTACAAGAGCCTGTT (sugars e5 d10 e5, PS) |  | 59% | 89% | 
TAGCCAGGTAAGGCCGTATG (sugars e3 d14 e3, PS) | 49% |  |  | 
AAGCCTCGGTGTCCTCTCCT (sugars e5 d10 e5, PS) |  | 50% | 87% | 
AGTCTAGTTGGAAAAGTAGA (sugars e5 d10 e5, PS) | 16% |  |  | 
TCATGAGAAGCTTAGAAGGC (sugars e5 d10 e5, PS) | 58% |  |  | 
TGGCACTAAGCTAGGCACAC (sugars e5 d10 e5, PS) | 62% |  |  | 
TGGACAAGTCCTGCCCATCT (sugars e5 d10 e5, PS) | 72% |  |  | 
AGCAGGTTGTGTGTCTTCAC (sugars e3 d14 e3, PS) | 63% |  |  | 
CTTGGAGTAGGGCACCAGCC (sugars e5 d10 e5, PS) | 35% |  |  | 
AAGTAAGCCTCGGTGTCCTC (sugars e5 d10 e5, PS) |  | 84% | 69% | 
ATGGGAATGGTATCGCACTC (sugars e5 d10 e5, PS) |  | 57% and 72% | 80% and 96% | 
ACTGGTGCCTAAGAGCCCTA (sugars e5 d10 e5, PS) |  | 77% | 94% | 
ACTCCCAGTACAAGGAAGGA (sugars e5 d10 e5, PS) | 3% |  |  | 
GCCGTATGCCTGGGAACTTC (sugars e5 d10 e5, PS) | 29% |  |  | 
AGCACAGCGATGAGCCA (sugars e3 d10 e4, PS) |  | 58% | 87% | 
GTTCTTGGGCCTAAAGGTGA (sugars e5 d10 e5, PS) | 34% |  |  | 
GCTGATTACAAGCTGATTCT (sugars e5 d10 e5, PS) |  | 59% | 76% | 
AGCAGGTTGTGTGTCTTCAC (sugars e2 d13 e5, PS) | 44% |  |  | 
CCACCTTCCAGGGAATAAAA (sugars e5 d10 e5, PS) | 22% |  |  | 
TCCTATCAGTTAGCAGTGCA (sugars e5 d10 e5, PS) |  | 81% and 68% | 86% and 83% | 
CAGGCCCCACTGCTTAGAGG (sugars e5 d10 e5, PS) | 48% |  |  | 
